Source: PubChem BioAssay (NCI)
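Exposure lasted 48 hours, with cells grown in 96-well plates and compounds tested at five concentrations. Abbreviation: GI50, concentration required for 50% inhibition of growth. TGI marks complete inhibition of growth.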

Columns and labels:
Assay in all cases: growth of human tumour cells (NCI), 48 h
786-0 renal = tested on: 786-0 renal
CAKI-1 renal = tested on: CAKI-1 renal
EKVX NSCLC = tested on: EKVX NSCLC
HOP-62 NSCLC = tested on: HOP-62 NSCLC
HS 578T breast = tested on: HS 578T breast
M14 melanoma = tested on: M14 melanoma
PC-3 prostate = tested on: PC-3 prostate
RPMI-8226 leukemia = tested on: RPMI-8226 leukemia
SK-MEL-5 melanoma = tested on: SK-MEL-5 melanoma
SNB-19 CNS = tested on: SNB-19 CNS

| Structure (SMILES) | TGI (786-0 renal) [µM] | TGI (CAKI-1 renal) [µM] | TGI (EKVX NSCLC) [µM] | TGI (HOP-62 NSCLC) [µM] | TGI (HS 578T breast) [µM] | TGI (M14 melanoma) [µM] | TGI (PC-3 prostate) [µM] | TGI (RPMI-8226 leukemia) [µM] | TGI (SK-MEL-5 melanoma) [µM] | TGI (SNB-19 CNS) [µM] | GI50 (786-0 renal) [µM] | GI50 (CAKI-1 renal) [µM] | GI50 (EKVX NSCLC) [µM] | GI50 (HOP-62 NSCLC) [µM] | GI50 (HS 578T breast) [µM] | GI50 (M14 melanoma) [µM] | GI50 (PC-3 prostate) [µM] | GI50 (RPMI-8226 leukemia) [µM] | GI50 (SK-MEL-5 melanoma) [µM] | GI50 (SNB-19 CNS) [µM] |
| --- | --- | --- | --- | --- | --- | --- | --- | --- | --- | --- | --- | --- | --- | --- | --- | --- | --- | --- | --- | --- |
| O=c1cc(O)c2c(O)cc(O)cc2o1 | > 100 | > 100 | > 100 | > 100 | > 100 | > 100 | > 100 | > 100 | > 100 | > 100 | – | – | – | – | – | – | – | – | – | – |
| Nc1nc(-c2cc(-c3cccc4ccccc34)nc(N)n2)cc(-c2cccc3ccccc23)n1 | > 100 | > 100 | > 100 | > 100 | > 100 | > 100 | > 100 | > 100 | > 100 | > 100 | – | – | – | – | – | – | – | – | – | – |
| Cc1cc(O)cc(C)c1/C=C/c1cncc(C(=O)OC(C)(C)C)c1 | > 25 | > 25 | > 25 | > 25 | 24.7 | > 25 | > 25 | > 25 | > 25 | > 25 | 19.1 | 12.3 | 12.6 | > 19.4 | 7.64 | > 24 | 10.4 | > 22.4 | 10.2 | > 25 |
| Cn1c2ccccc2c2nnc(NNCc3ccccn3)nc21 | 4.51 | 1.63 | 15.2 | 4.64 | 16.7 | 0.738 | 16.5 | 18.4 | 1.65 | 17.4 | 0.327 | 0.248 | 0.406 | 0.324 | 1.44 | 0.246 | 0.594 | 0.589 | 0.271 | 0.597 |
| Cc1ccc(C)c2c(N=Nc3ccccc3[N+](=O)[O-])c(O)[nH]c12 | > 100 | > 100 | > 100 | > 100 | > 100 | > 100 | > 100 | > 100 | > 100 | > 100 | – | – | – | – | – | – | – | – | – | – |
| CNC(=O)c1cc2c(Oc3ccc(NC(=S)NC(=O)Cc4ccccc4)cc3F)ccnc2cc1OC | > 100 | > 100 | > 100 | > 100 | 8.05 | > 100 | > 100 | > 100 | > 100 | > 100 | 5.75 | 4.23 | > 100 | 22.6 | 1.29 | > 24.3 | 16.7 | > 28.3 | > 20.6 | > 100 |
| CC(C)(C)OC(=O)NCCCCCCCCCCn1c2c(c3ccccc3c1=O)C(=O)c1ccccc1-2 | > 100 | > 100 | > 100 | > 100 | > 100 | > 100 | > 100 | > 100 | > 100 | > 100 | 20.2 | 27.9 | > 100 | 29.1 | 24.6 | > 100 | > 100 | 79.7 | > 100 | 44.1 |
| COC(=O)[C@@H](OC)[C@@H]1Cc2cc3cc(OC4CC(OC5CC(O)C(O)C(C)O5)C(O)C(C)O4)c(C)c(O)c3c(O)c2C(=O)[C@H]1OC1CC(OC2CC(OC3CC(C)(O)C(O)C(C)O3)C(O)C(C)O2)C(O)C(C)O1 (some centres undefined) | > 16.5 | – | 1.22 | 1.8 | 0.223 | 0.157 | 0.188 | 0.112 | 0.0892 | > 8.89 | 0.0302 | 0.0425 | 0.0457 | 0.0312 | 0.0399 | 0.0382 | 0.0429 | 0.0329 | 0.0327 | 0.0449 |
| Nc1cc2nc3ccccc3oc-2cc1=O | > 83.4 | > 53.7 | > 64.2 | 6.64 | 5.52 | 3.01 | > 100 | > 20.4 | 2.38 | 16 | 20.7 | 15.3 | 7.38 | 2.94 | 1.48 | 1.61 | 16.7 | 0.951 | 1.16 | 5.44 |
| Cn1c(C(C)(C)OC(=O)Oc2ccccc2)cnc1[N+](=O)[O-] | > 100 | > 100 | > 100 | > 100 | > 100 | > 100 | > 100 | 77.1 | > 100 | > 100 | – | – | – | – | – | – | – | – | – | – |
| CCN1C(=O)N(CC)C2C1NN=c1s/c(=C\c3cccc([N+](=O)[O-])c3)c(=O)n12 (centres undefined) | > 100 | > 100 | > 100 | > 100 | > 100 | > 100 | > 100 | > 100 | 1.17 | > 100 | 0.143 | 0.052 | 0.382 | 0.104 | 0.0502 | 0.0533 | 0.0853 | 0.127 | 0.0511 | 0.128 |
| CCN(CC)c1ccc(/C=C/C=C(/C#N)C(N)=S)cc1 | 8.69 | > 100 | > 100 | 32.3 | > 100 | 9.33 | > 100 | 7.88 | > 100 | > 100 | 2.76 | 31.8 | 6.5 | 5.37 | 38.5 | 2.53 | 5.21 | 2.14 | 5.96 | 40.4 |
| C#C/C=C/CC1OC(C(Br)CC)CC(Br)C2CC1O2 (centres undefined) | 24.8 | > 100 | > 100 | > 100 | > 100 | > 100 | > 100 | > 100 | > 100 | > 100 | – | – | – | – | – | – | – | – | – | – |
| CCCC#CCOC(=O)c1cc([N+](=O)[O-])cc([N+](=O)[O-])c1 | > 100 | > 100 | > 100 | > 100 | > 100 | > 100 | > 100 | > 100 | > 100 | > 100 | – | – | – | – | – | – | – | – | – | – |
| CC1(C)CC(=O)c2c(ccc(C(=O)C[C@@H](N)CO)c2N)O1 | > 61.4 | 23.7 | > 100 | > 49.1 | > 100 | 8.41 | > 100 | 21.4 | > 43.9 | > 100 | 11.9 | 0.564 | 19 | 0.643 | 20.6 | 0.664 | 2.1 | 1.56 | 1.37 | 0.749 |
